Data reported in patent US20240376120A1, “CAMPTOTHECIN COMPOUND, PREPARATION METHOD THEREFOR AND USE THEREOF” (priority 2021, published 2024).
Like-named read-outs stand apart in the source and are kept apart here.

What was measured:
[1] = test system: MCF-7 cells (human breast cancer cells); experiment: MCF-7 cell proliferation inhibitory assay (CellTiter-Glo); format: cell-based; conditions: Homo sapiens
Experimental: • 1). […] Resuspend an appropriate amount of cell suspension to 4000 cells/100 μL according to the count, mixed well and then put the corresponding number of cells into a 96-well plate by pipette. • 3). Each hole of the edge was sealed with 100 μL DPBS and put into an incubator for culture. • 4). Day 1 drug addition: Prepare the storage solution of the compound to be tested 1 hour in advance. 24 h after plating, the culture medium was gradiently diluted to a concentration twice the final concentration of each group. Take out the plated cells from the incubator and add 100 μL of the corresponding 2-fold concentration medium to each well by pipette.
Day 1 detected: Take out the plate to be tested and an appropriate amount of CTG in advance and rewarm it at room temperature in the dark. 50 μL of CTG was added to each well at 24 h. Shake with the oscillator for 5 minutes, and after balancing in the dark for 5 minutes, detect the luminescence value with a microplate reader; The mixture was shaken for 5 min, and after equilibration in the dark for 5 min, the luminescence value was detected with ELISA. • 6). Day 4 detection: Take an appropriate amount of CTG 1 h in advance and rewarm it at room temperature in the dark. At the same time, take out the plate to be tested from the incubator and leave it to equilibrate at room temperature for 30 minutes; 72 h after adding the drug, 100 μL of culture medium was sucked out with pipette carefully from each cell well, and 50 μL of CTG was added. The mixture was shaken for 5 min, and after equilibration in the dark for 5 min, the luminescence value was detected with ELISA analyzer. • 7). Data analysis and processed.
Collect data and convert it into survival rate: Inhibition rate (%)=(100−(OD value of compound-OD value on the first day)/(OD value of control well-OD value on the first day))×100%
(§1) Input the compound into graphpad prism to obtain the corresponding IC50 value.

[2] = in vitro; conditions: human, Caco-2
Experimental: Day 0 plated: After digesting the target cells in the logarithmic growth phase, make a single cell suspension and count. • 2). Took out the corresponding number of transwell chambers and placed them in a 24-well plate, added 200 μL PBS to the upper chamber, incubated for 10 mins, and removed the PBS from the upper chamber by pipette. • 3). According to the count, took an appropriate amount of cell suspension and resuspended it to 5000 cells/200 μL, mixed well and added it to the upper chamber of the transwell, and added 600 μL of complete culture medium to the lower chamber. • 4). medium exchanged on DAY1: The upper chamber and the lower chamber were exchanged with complete culture medium containing 0.1 mg/mL ascorbic acid for 9 days continuously, and the resistance value of membrane expansion was measured. […] Collected the liquid in the upper chamber and the lower chamber for detection. • 7). Calculated Papp according to the formula “Papp=dQ/(dt×A×C0)”. dQ/dt was the transport amount of drugs per unit time, which was the slope of the linear regression of cumulative drug release amount Q versus time t. A was the bottom area of the Transwell orifice plate membrane, and the bottom area was 0.33 cm^2 of 24-well plate in this experiment. Co was the initial concentration of drugs in the upper chamber (μg mL-1).

[3] = test system: MDA-MB-231 cells (human breast cancer cells); experiment: MDA-MB-231 cell proliferation inhibitory assay (CellTiter-Glo); format: cell-based; conditions: Homo sapiens
Experimental: (§2) • 1). […] Resuspend an appropriate amount of cell suspension to 3000 cells/100 μL according to the count, mixed well and then put the corresponding number of cells into a 96-well plate by pipette. • 3). Each hole of the edge was sealed with 100 μL DPBS and put into an incubator for culture. • 4). Day 1 drug addition: Prepare the storage solution of the compound to be tested 1 hour in advance. 24 h after plating, the culture medium was gradiently diluted to a concentration twice the final concentration of each group. Take out the plated cells from the incubator and add 100 μL of the corresponding 2-fold concentration medium to each well by pipette. • 5). Day 1 detected: Take out an appropriate amount of CTG 1 h in advance and the plate was allowed to equilibrate at room temperature for 30 min. 100 μL of CTG was added to each well and shaken for 5 mins, and then standed in the dark for 5 mins, the luminescence value was detected by ELISA. • 6). Day 4 detection: Take an appropriate amount of CTG 1 h in advance and rewarm it at room temperature in the dark. At the same time, take out the plate to be tested from the incubator and leave it to equilibrate at room temperature for 30 minutes; 72 h after adding the drug, 100 μL of culture medium was sucked out with pipette carefully from each cell well, and 100 μL of CTG was added. The mixture was shaken for 5 min, and after equilibration in the dark for 5 min, the luminescence value was detected with ELISA. • 7). Analyze data and write detailed experimental records.
as §1

[4] = test system: MDA-MB-435s cells (human melanoma cells); experiment: MDA-MB-435s cell proliferation inhibitory assay (CellTiter-Glo); format: cell-based; conditions: Homo sapiens
Experimental: as §2
Collect data and convert it into survival rate: Inhibition rate (%)=(100−(OD value of compound−OD value on the first day)/(OD value of control well-OD value on the first day))×100%
as §1

[5] = MCF7, 72 h, read-out: Proliferation inhibition IC50
[6] = MDA-MB-231, 72 h, read-out: Proliferation inhibition IC50
[7] = MDA-MB-435S, 72 h, read-out: Proliferation inhibition IC50
[8] = MDA-MB-231 cells, 72 h after adding the drug, Table 2, read-out: Proliferation inhibition IC50
[9] = MDA-MB-435s cells, 72 h after adding the drug, Table 3, read-out: Proliferation inhibition IC50

Row | SMILES | IC50 [1, 5] | IC50 [3, 6] | IC50 [4, 7] | other results
1 | CC[C@@]1(O)C(=O)OCc2c1cc1n(c2=O)Cc2c-1nc1cc(F)c(C)cc1c2CO [Example 12b] | 16.5 nM | 20.2 nM | 3.2 nM | IC50 ([1]; MCF7, read-out: MCF-7 Proliferation inhibition IC50): 16.5 nM; Papp A→B at 180 min, 100 μg/mL [2]: 49.3 ×10⁻⁶ cm/s; IC50 ([3]; MDA-MB-231, read-out: MDA-MB-231 Proliferation inhibition IC50): 20.2 nM; IC50 ([4]; MDA-MB-435S, read-out: MDA-MB-435s Proliferation inhibition IC50): 3.2 nM
2 | CC[C@@]1(O)C(=O)OCc2c1cc1n(c2=O)Cc2c-1nc1cc(F)c(C)cc1c2CN [Compound A, reference compound] | – | – | – | IC50 ([1]; MCF7, MCF-7 cells, 72 h after adding the drug, Table 1, read-out: Proliferation inhibition IC50): 15.3 nM; IC50 ([1]; MCF7, MCF-7 cells, comparative Table 4, read-out: MCF-7 Proliferation inhibition IC50): 15.3 nM; Papp A→B at 180 min, 100 μg/mL [2]: 68.8 ×10⁻⁶ cm/s; IC50 [3, 8]: 260 nM; IC50 ([3]; MDA-MB-231 cells, comparative Table 4, read-out: MDA-MB-231 Proliferation inhibition IC50): 260 nM; IC50 [4, 9]: 21.4 nM; IC50 ([4]; MDA-MB-435s cells, comparative Table 4, read-out: MDA-MB-435s Proliferation inhibition IC50): 21.4 nM
3 | CC[C@@]1(O)C(=O)OCc2c1cc1n(c2=O)Cc2c-1nc1ccc(O)cc1c2[C@@H](C)N [Example 5] | 12.3 nM | 600 nM | 20.3 nM | –
4 | CC[C@@]1(O)C(=O)OCc2c1cc1n(c2=O)Cc2c-1nc1cc(F)c(C)cc1c2[C@H](C)NC(=O)CO [Example 13] | 8.3 nM | – | – | IC50 [3, 8]: 80.2 nM; IC50 [4, 9]: 2.8 nM
5 | CC[C@H](N)c1c2c(nc3ccccc13)-c1cc3c(c(=O)n1C2)COC(=O)[C@]3(O)CC [Example 9] | 25.2 nM | 310 nM | 25.3 nM | –
6 | CC[C@@]1(O)C(=O)OCc2c1cc1n(c2=O)Cc2c-1nc1ccccc1c2[C@@H](C)N [Example 3] | 15.5 nM | 120 nM | 11.2 nM | –
7 | CC[C@@]1(O)C(=O)OCc2c1cc1n(c2=O)Cc2c-1nc1cc3c(cc1c2[C@@H](C)N)OCCO3 [Example 36b] | 8.3 nM | 15.4 nM | 3.15 nM | –
8 | CC[C@@]1(O)C(=O)OCc2c1cc1n(c2=O)Cc2c-1nc1cc(F)c(C)cc1c2[C@H](C)NC(=O)[C@@H](O)C(F)(F)F [Example 19] | 15.2 nM | 261 nM | 15.3 nM | –
9 | CC[C@@H](N)c1c2c(nc3ccccc13)-c1cc3c(c(=O)n1C2)COC(=O)[C@]3(O)CC [Example 9R] | 55.3 nM | 180 nM | 15.3 nM | –
10 | CC[C@@]1(O)C(=O)OCc2c1cc1n(c2=O)Cc2c-1nc1cc(F)c(C)cc1c2C(C)(C)N [Example 7] | 20.2 nM | 320 nM | 162 nM | –
11 | CC[C@@]1(O)C(=O)OCc2c1cc1n(c2=O)Cc2c-1nc1cc(F)c(OC)cc1c2[C@@H](C)N [Example 30b] | 3.8 nM | 25 nM | 0.9 nM | –
12 | CC[C@@]1(O)C(=O)OCc2c1cc1n(c2=O)Cc2c-1nc1cc(F)c(OC)cc1c2[C@H](C)O [Example 30c] | 8.1 nM | 12.2 nM | 3.8 nM | –
13 | CC[C@@]1(O)C(=O)OCc2c1cc1n(c2=O)Cc2c-1nc1cc(F)c(C)cc1c2[C@H](C)NC(=O)[C@H](O)C(F)(F)F [Example 18] | 11.3 nM | 150 nM | 10.3 nM | –
14 | CC[C@@]1(O)C(=O)OCc2c1cc1n(c2=O)Cc2c-1nc1cc(F)c(OC)cc1c2[C@@H](C)O [Example 30d] | 4.1 nM | 28.1 nM | 1.2 nM | –
15 | CC[C@@]1(O)C(=O)OCc2c1cc1n(c2=O)Cc2c-1nc1cc(F)c(C)cc1c2[C@H](C)NC(=O)C1CCCCC1O (some centres unmarked) [Example 26] | 35.2 nM | 150 nM | 5.6 nM | –
16 | CC[C@@]1(O)C(=O)OCc2c1cc1n(c2=O)Cc2c-1nc1cc(F)c(C(F)(F)F)cc1c2[C@@H](C)N [Example 34b] | 4.2 nM | 8.8 nM | 2.85 nM | –
17 | CC[C@@]1(O)C(=O)OCc2c1cc1n(c2=O)Cc2c-1nc1cc(F)c(C)cc1c2[C@H](C)NC(=O)[C@H](C)O [Example 14] | 8.3 nM | 88.6 nM | 3.8 nM | –

Row | SMILES | IC50 [1, 5] | IC50 [3, 6] | IC50 [4, 7] | other results
18 | CC[C@@]1(O)C(=O)OCc2c1cc1n(c2=O)Cc2c-1nc1ccc(O)cc1c2[C@H](C)O [Example 12-1] | 32.2 nM | 500 nM | 38.2 nM | –
19 | CC[C@@]1(O)C(=O)OCc2c1cc1n(c2=O)Cc2c-1nc1cc(F)c(C)cc1c2[C@H](C)N1CCN(C)CC1 [Example 42a] | 14.6 nM | 125 nM | 3.21 nM | –
20 | CC[C@@]1(O)C(=O)OCc2c1cc1n(c2=O)Cc2c-1nc1ccc(OC)cc1c2[C@@H](C)O [Example 31d] | 8.1 nM | 8.3 nM | 2.3 nM | –
21 | CC[C@@]1(O)C(=O)OCc2c1cc1n(c2=O)Cc2c-1nc1cc(F)c(C)cc1c2[C@H](C)[N+](C)(C)C [Example 24] | 10.2 nM | 80.1 nM | 6.6 nM | –
22 | CC[C@@]1(O)C(=O)OCc2c1cc1n(c2=O)Cc2c-1nc1cc3c(cc1c2[C@H](C)N)OCCO3 [Example 36a] | 15.2 nM | 26.3 nM | 6.33 nM | –
23 | CC[C@@]1(O)C(=O)OCc2c1cc1n(c2=O)Cc2c-1nc1cc(F)c(C)cc1c2[C@H](C)NCCO [Example 25] | 30.2 nM | 261 nM | 10.2 nM | –
24 | CC[C@@]1(O)C(=O)OCc2c1cc1n(c2=O)Cc2c-1nc1cc(F)c(F)cc1c2[C@@H](C)N [Example 33b] | 8.5 nM | 24.3 nM | 0.85 nM | –
25 | CC[C@@]1(O)C(=O)OCc2c1cc1n(c2=O)Cc2c-1nc1cc(F)c(C)cc1c2[C@H](C)N(C)C [Example 22] | 9.3 nM | 60.8 nM | 5.6 nM | –
26 | CC[C@@]1(O)C(=O)OCc2c1cc1n(c2=O)Cc2c-1nc1cc(F)c(C)cc1c2[C@H](C)NC(C)=O [Compound 1f-2] | 11.6 nM | 74.2 nM | 3.5 nM | –
27 | CC[C@@]1(O)C(=O)OCc2c1cc1n(c2=O)Cc2c-1nc1cc(F)c(C)cc1c2[C@H]1CCN1 [Example 38b] | 2 nM | 6.2 nM | 0.65 nM | –
28 | CC[C@@]1(O)C(=O)OCc2c1cc1n(c2=O)Cc2c-1nc1cc(F)c(C)c(C)c1c2[C@H](C)N [Example 29a] | 4.5 nM | 10 nM | 2.1 nM | –
29 | CC[C@@]1(O)C(=O)OCc2c1cc1n(c2=O)Cc2c-1nc1ccc(O)cc1c2C(C)O (some centres unmarked) [Example 12] | 50.3 nM | 1200 nM | 59.3 nM | –
30 | [2H]C([2H])(O)C(=O)N[C@@H](C)c1c2c(nc3cc(F)c(C)cc13)-c1cc3c(c(=O)n1C2)COC(=O)[C@]3(O)CC [Example 20] | 7.8 nM | 120 nM | 2.7 nM | –
31 | CC[C@@]1(O)C(=O)OCc2c1cc1n(c2=O)Cc2c-1nc1cc(F)c(C)cc1c2[C@@H](C)NC(C)=O [Compound 1f-1] | 15.2 nM | 110 nM | 5.8 nM | –
32 | CC[C@@]1(O)C(=O)OCc2c1cc1n(c2=O)Cc2c-1nc1cc(F)c(OC)cc1c2[C@H](C)N [Example 30a] | 6.3 nM | 11.6 nM | 3.3 nM | –
33 | CC[C@@]1(O)C(=O)OCc2c1cc1n(c2=O)Cc2c-1nc1cc(F)c(C)cc1c2[C@H](C)NC(=O)[C@@H](C)O [Example 15] | 10.6 nM | 141 nM | 4.2 nM | –
